Assay results as given in US10736857B2, “Treatment of pervasive developmental disorders with redox-active therapeutics” (PTC Therapeutics, Inc., priority 2008, dated 2020).

Test system: Human Dermal Fibroblasts from Autistic Patients (ASD fibroblasts)
Test: Rescue of ASD fibroblasts stressed by addition of L-buthionine-(S,R)-sulfoximine (BSO), Calcein AM viability read-out
Format: cell-based
Conditions: Fibroblast, 1 mM final BSO, 48 hours, Calcein AM fluorescence, viability relative to non-BSO treated fibroblasts (100%), tested three times, read-out: EC50, protection against ASD (rescue of BSO-stressed ASD fibroblasts)
Description: A screen was performed to identify compounds effective for the amelioration of ASD. Test samples, and solvent controls were tested for their ability to rescue ASD fibroblasts stressed by addition of L-buthionine-(S,R)-sulfoximine (BSO).
MEM (a medium enriched in amino acids and vitamins, catalog no. Gibco 11965) and Fetal Calf Serum were obtained from Invitrogen. Basic fibroblast growth factor and epidermal growth factor were purchased from PeproTech. Penicillin-streptomycin-glutamine mix, L-buthionine (S,R)-sulfoximine, and insulin from bovine pancreas were purchased from Sigma. Calcein AM was purchased from Molecular Probes. Cell culture medium (ATP) was made by combining 75 ml Fetal Calf Serum, 100 U/ml penicillin, 100 μg/ml streptomycin, 2 mM glutamine, 10 ng/ml EGF, and 10 ng/ml bFGF; MEM EBS was added to make the volume up to 500 ml. A 10 mM BSO solution was prepared by dissolving 444 mg BSO in 200 ml of medium with subsequent filter-sterilization. […]
100 μl of PBS containing 1.2 μM Calcein AM were then added to each well. […] After that time the PBS was discarded, the plate gently tapped on a paper towel and fluorescence (excitation/emission wavelengths of 485 nm and 525 nm, respectively) was read on a Gemini fluorescence reader. […]
The viability of non-BSO treated fibroblasts was set as 100%, and the viability of the BSO- and compound-treated cells was calculated as relative to this value.

SMILES | EC50 [nM]
CCCCCCCCCC1=C(C)C(=O)C(C)=C(C)C1=O [2,3,5-trimethyl-6-nonylcyclohexa-2,5-diene-1,4-dione] | < 150
CC(C)=CCC/C(C)=C/CC/C(C)=C/CCC(C)(O)CCC1=C(C)C(=O)C(C)=C(C)C1=O (centres unmarked) [2-(3-hydroxy-3,7,11,15-tetramethylhexadeca-6,10,14-trienyl)-3,5,6-trimethylcyclohexa-2,5-diene-1,4-dione] | < 150
